Source: ChEMBL document CHEMBL3885881, “DrugMatrix”

Species on record: Rattus norvegicus
Assay: DrugMatrix - Regimen: Daily Repeat
Format: toxicity, organism-based, Sprague-Dawley
Design: regimen Daily Repeat, gender Male, age 6-8 weeks
Settings: in vivo, po, route oral GAVAGE, vehicle 100 % WATER; for ABSOLUTE BASOPHIL / ABSOLUTE EOSINOPHIL / ABSOLUTE LYMPHOCYTE / ABSOLUTE MONOCYTE / ABSOLUTE SEGMENTED NEUTROPHIL / BASOPHIL / EOSINOPHIL / ERYTHROCYTE COUNT / HEMATOCRIT / HEMOGLOBIN / LEUKOCYTE COUNT / LYMPHOCYTE / MEAN CORPUSCULAR HEMOGLOBIN / MEAN CORPUSCULAR HEMOGLOBIN CONCENTRATION / MEAN CORPUSCULAR VOLUME / MONOCYTE / NEUTROPHIL / NUCLEATED RED BLOOD CELLS / PLATELET COUNT: tissue Blood; for ALANINE AMINOTRANSFERASE / ALBUMIN / ALKALINE PHOSPHATASE / ASPARTATE AMINOTRANSFERASE / BLOOD UREA NITROGEN / CARBON DIOXIDE / CHLORIDE / CHOLESTEROL / CREATINE PHOSPHOKINASE / CREATININE / GLUCOSE / LACTATE DEHYDROGENASE / LIPASE / PHOSPHORUS / POTASSIUM / SODIUM / TOTAL BILIRUBIN / TOTAL PROTEIN / URIC ACID: tissue Plasma
[1] = 120 mg/kg, 120 h, dose level Low, time 5 day
[2] = 1200 mg/kg, 72 h, dose level High, time 3 day
[3] = 1200 mg/kg, 120 h, dose level High, time 5 day

Compound: Cc1onc(-c2ccccc2Cl)c1C(=O)N[C@@H]1C(=O)N2[C@@H]1SC(C)(C)[C@@H]2C(=O)O [CLOXACILLIN]
- ABSOLUTE BASOPHIL [1]: 0 CELLS/uL
- ABSOLUTE EOSINOPHIL [1]: 0 CELLS/uL
- ABSOLUTE LYMPHOCYTE [1]: 14591.67 CELLS/uL
- ABSOLUTE MONOCYTE [1]: 338 CELLS/uL
- ABSOLUTE SEGMENTED NEUTROPHIL [1]: 1970.33 CELLS/uL
- BASOPHIL [1]: 0%
- EOSINOPHIL [1]: 0%
- ERYTHROCYTE COUNT [1]: 5.42 x10E6/uL
- HEMATOCRIT [1]: 34.13%
- HEMOGLOBIN [1]: 13.57 G/DL
- LEUKOCYTE COUNT [1]: 16.9 x10E3/uL
- LYMPHOCYTE [1]: 86.33%
- MEAN CORPUSCULAR HEMOGLOBIN [1]: 25.07 pg
- MEAN CORPUSCULAR HEMOGLOBIN CONCENTRATION [1]: 39.73 G/DL
- MEAN CORPUSCULAR VOLUME [1]: 62.97 fL
- MONOCYTE [1]: 2%
- NEUTROPHIL [1]: 11.67%
- NUCLEATED RED BLOOD CELLS [1]: 0 /100WBC
- PLATELET COUNT [1]: 1237.33 x10E3/uL
- ALANINE AMINOTRANSFERASE [1]: 51.33 u/L
- ALBUMIN [1]: 4.13 G/DL
- ALKALINE PHOSPHATASE [1]: 349.67 u/L
- ASPARTATE AMINOTRANSFERASE [1]: 77.33 u/L
- BLOOD UREA NITROGEN [1]: 15.67 mg/dL
- CARBON DIOXIDE [1]: 27 mmol/L
- CHLORIDE [1]: 101.33 MEQ/L
- CHOLESTEROL [1]: 69.67 mg/dL
- CREATINE PHOSPHOKINASE [1]: 381.33 u/L
- CREATININE [1]: 0.14 mg/dL
- GLUCOSE [1]: 149.67 mg/dL
- LACTATE DEHYDROGENASE [1]: 190 u/L
- LIPASE [1]: 8.33 u/L
- PHOSPHORUS [1]: 11.87 mg/dL
- POTASSIUM [1]: 6.69 MEQ/L
- SODIUM [1]: 143.53 MEQ/L
- TOTAL BILIRUBIN [1]: 0.13 mg/dL
- TOTAL PROTEIN [1]: 5.77 G/DL
- URIC ACID [1]: 1.5 mg/dL
- ABSOLUTE BASOPHIL [2]: 0 CELLS/uL
- ABSOLUTE EOSINOPHIL [2]: 0 CELLS/uL
- ABSOLUTE LYMPHOCYTE [2]: 9313 CELLS/uL
- ABSOLUTE MONOCYTE [2]: 140.33 CELLS/uL
- ABSOLUTE SEGMENTED NEUTROPHIL [2]: 1013.33 CELLS/uL
- BASOPHIL [2]: 0%
- EOSINOPHIL [2]: 0%
- ERYTHROCYTE COUNT [2]: 4.48 x10E6/uL
- HEMATOCRIT [2]: 28.27%
- HEMOGLOBIN [2]: 11.27 G/DL
- LEUKOCYTE COUNT [2]: 10.47 x10E3/uL
- LYMPHOCYTE [2]: 90%
- MEAN CORPUSCULAR HEMOGLOBIN [2]: 25.37 pg
- MEAN CORPUSCULAR HEMOGLOBIN CONCENTRATION [2]: 39.93 G/DL
- MEAN CORPUSCULAR VOLUME [2]: 63.4 fL
- MONOCYTE [2]: 1%
- NEUTROPHIL [2]: 9%
- NUCLEATED RED BLOOD CELLS [2]: 0 /100WBC
- PLATELET COUNT [2]: 825.33 x10E3/uL
- ALANINE AMINOTRANSFERASE [2]: 72 u/L
- ALBUMIN [2]: 4.03 G/DL
- ALKALINE PHOSPHATASE [2]: 414 u/L
- ASPARTATE AMINOTRANSFERASE [2]: 89.67 u/L
- BLOOD UREA NITROGEN [2]: 15 mg/dL
- CARBON DIOXIDE [2]: 22.33 mmol/L
- CHLORIDE [2]: 102.67 MEQ/L
- CHOLESTEROL [2]: 86.33 mg/dL
- CREATINE PHOSPHOKINASE [2]: 306 u/L
- CREATININE [2]: 0.16 mg/dL
- GLUCOSE [2]: 144.67 mg/dL
- LACTATE DEHYDROGENASE [2]: 170 u/L
- LIPASE [2]: 10.67 u/L
- PHOSPHORUS [2]: 12.23 mg/dL
- POTASSIUM [2]: 6.82 MEQ/L
- SODIUM [2]: 143.7 MEQ/L
- TOTAL BILIRUBIN [2]: 0.13 mg/dL
- TOTAL PROTEIN [2]: 5.7 G/DL
- URIC ACID [2]: 1.7 mg/dL
- ABSOLUTE BASOPHIL [3]: 0 CELLS/uL
- ABSOLUTE EOSINOPHIL [3]: 148.67 CELLS/uL
- ABSOLUTE LYMPHOCYTE [3]: 18945 CELLS/uL
- ABSOLUTE MONOCYTE [3]: 0 CELLS/uL
- ABSOLUTE SEGMENTED NEUTROPHIL [3]: 1139.67 CELLS/uL
- BASOPHIL [3]: 0%
- EOSINOPHIL [3]: 0.67%
- ERYTHROCYTE COUNT [3]: 5.75 x10E6/uL
- HEMATOCRIT [3]: 35.27%
- HEMOGLOBIN [3]: 13.97 G/DL
- LEUKOCYTE COUNT [3]: 20.23 x10E3/uL
- LYMPHOCYTE [3]: 93.67%
- MEAN CORPUSCULAR HEMOGLOBIN [3]: 24.3 pg
- MEAN CORPUSCULAR HEMOGLOBIN CONCENTRATION [3]: 39.6 G/DL
- MEAN CORPUSCULAR VOLUME [3]: 61.33 fL
- MONOCYTE [3]: 0%
- NEUTROPHIL [3]: 5.67%
- NUCLEATED RED BLOOD CELLS [3]: 0 /100WBC
- PLATELET COUNT [3]: 1362 x10E3/uL
- ALANINE AMINOTRANSFERASE [3]: 67 u/L
- ALBUMIN [3]: 4.2 G/DL
- ALKALINE PHOSPHATASE [3]: 356 u/L
- ASPARTATE AMINOTRANSFERASE [3]: 78 u/L
- BLOOD UREA NITROGEN [3]: 17.67 mg/dL
- CARBON DIOXIDE [3]: 26 mmol/L
- CHLORIDE [3]: 102.67 MEQ/L
- CHOLESTEROL [3]: 75.33 mg/dL
- CREATINE PHOSPHOKINASE [3]: 220.67 u/L
- CREATININE [3]: 0.15 mg/dL
- GLUCOSE [3]: 159.67 mg/dL
- LACTATE DEHYDROGENASE [3]: 104 u/L
- LIPASE [3]: 9.33 u/L
- PHOSPHORUS [3]: 11.63 mg/dL
- POTASSIUM [3]: 6.63 MEQ/L
- SODIUM [3]: 144.07 MEQ/L
- TOTAL BILIRUBIN [3]: 0.13 mg/dL
- TOTAL PROTEIN [3]: 6.17 G/DL
- URIC ACID [3]: 2 mg/dL
